{
  "source": "ChEMBL document CHEMBL1130210",
  "about": "“Steroidal glycoside cholesterol absorption inhibitors” (1997)",
  "key": {"Cricetinae gen. sp. [1]": {"test_system": "Cricetinae gen. sp.", "assay": "Compound was tested for its ability to inhibit the intestinal absorption of [3H]cholesterol in cholesterol-fed hamsters at 10 mg/kg dose", "assay_type": "functional, Cricetulus griseus"}, "Cricetinae gen. sp. [2]": {"test_system": "Cricetinae gen. sp.", "assay": "Compound was tested for its ability to inhibit the intestinal absorption of [3H]cholesterol in cholesterol-fed hamsters at 100 mg/kg dose", "assay_type": "functional, Cricetulus griseus"}, "Cricetinae gen. sp. [3]": {"test_system": "Cricetinae gen. sp.", "assay": "Compound was tested for its ability to inhibit the intestinal absorption of [3H]cholesterol in cholesterol-fed hamsters at 5 mg/kg dose", "assay_type": "functional, Cricetulus griseus"}, "Cricetinae gen. sp. [4]": {"test_system": "Cricetinae gen. sp.", "assay": "Ability to inhibit the intestinal absorption of [3H]cholesterol in cholesterol-fed hamsters", "assay_type": "functional"}, "Cricetinae gen. sp. [5]": {"test_system": "Cricetinae gen. sp.", "assay": "Compound was tested for its ability to inhibit the intestinal absorption of [3H]cholesterol in cholesterol-fed hamsters at 200 mg/kg dose", "assay_type": "functional, Cricetulus griseus"}},
  "data": [
    {"smiles": "C[C@@H]1CC[C@@]2(OC1)OC1C[C@H]3[C@@H]4CC[C@H]5C[C@@H](O[C@@H]6O[C@@H](CO)[C@@H](O[C@@H]7O[C@@H](CO)[C@@H](O)[C@H](O)[C@@H]7O)[C@H](O)[C@@H]6O)CC[C@]5(C)[C@H]4C(=O)C[C@]3(C)C1[C@@H]2C", "note": "(stereo partly specified)", "values": [
      {"measurement": "inhibition in vivo at 10 mg/kg", "setting": "Cricetinae gen. sp. [1]", "value": 23, "unit": "%"}
    ]},
    {"smiles": "C[C@]12CC[C@@H]3c4ccc(O[C@@H]5O[C@@H](CO)[C@@H](O[C@@H]6O[C@@H](CO)[C@@H](O)[C@H](O)[C@@H]6O)[C@H](O)[C@@H]5O)cc4CC[C@H]3[C@@H]1CCC2=O", "values": [
      {"measurement": "inhibition in vivo at 100 mg/kg", "setting": "Cricetinae gen. sp. [2]", "value": 14, "unit": "%"}
    ]},
    {"smiles": "C[C@@H]1CC[C@@]2(OC1)OC1CC3C4CC[C@H]5C[C@@H](O[C@@H]6O[C@@H](COC(=O)Nc7ccc(Cl)cc7)[C@@H](O[C@@H]7O[C@@H](CO)[C@@H](O)[C@H](O)[C@@H]7O)[C@H](O)[C@@H]6O)CC[C@]5(C)C4C(=O)C[C@]3(C)C1[C@@H]2C", "note": "(stereo partly specified)", "values": [
      {"measurement": "inhibition in vivo at 5 mg/kg", "setting": "Cricetinae gen. sp. [3]", "value": 37, "unit": "%"}
    ]},
    {"smiles": "C[C@@H]1CC[C@@]2(OC1)OC1CC3C4CC[C@H]5C[C@@H](O[C@@H]6O[C@@H](CO)[C@@H](O[C@@H]7O[C@@H](COC(=O)NCc8ccco8)[C@@H](OC(=O)NCc8ccco8)[C@H](O)[C@@H]7O)[C@H](O)[C@@H]6O)CC[C@]5(C)C4C(=O)C[C@]3(C)C1[C@@H]2C", "note": "(stereo partly specified)", "values": [
      {"measurement": "ED50", "setting": "Cricetinae gen. sp. [4]", "value": 0.3, "unit": "mg/kg"}
    ]},
    {"smiles": "C[C@@H]1CC[C@@]2(OC1)OC1CC3C4CC[C@H]5C[C@@H](O[C@@H]6O[C@@H](CO)[C@@H](O[C@@H]7O[C@@H](COC(=O)NCc8ccccc8)[C@@H](O)[C@H](O)[C@@H]7O)[C@H](O)[C@@H]6O)CC[C@]5(C)C4C(=O)C[C@]3(C)C1[C@@H]2C", "note": "(stereo partly specified)", "values": [
      {"measurement": "ED50", "setting": "Cricetinae gen. sp. [4]", "value": 5, "unit": "mg/kg"}
    ]},
    {"smiles": "C[C@@]12CCC[C@H]1[C@@H]1CC[C@H]3C[C@@H](O[C@@H]4O[C@@H](CO)[C@@H](O[C@@H]5O[C@@H](CO)[C@@H](O)[C@H](O)[C@@H]5O)[C@H](O)[C@@H]4O)CC[C@]3(C)[C@H]1CC2", "values": [
      {"measurement": "inhibition in vivo at 200 mg/kg", "setting": "Cricetinae gen. sp. [5]", "value": 37, "unit": "%"}
    ]},
    {"smiles": "C[C@@H]1CC[C@@]2(OC1)OC1CC3C4CC[C@H]5C[C@@H](O[C@@H]6O[C@@H](CO)[C@@H](O[C@@H]7O[C@@H](COC(=O)Nc8ccc(F)cc8F)[C@@H](O)[C@H](O)[C@@H]7O)[C@H](O)[C@@H]6O)CC[C@]5(C)C4C(=O)C[C@]3(C)C1[C@@H]2C", "note": "(stereo partly specified)", "values": [
      {"measurement": "ED50", "setting": "Cricetinae gen. sp. [4]", "value": 0.25, "unit": "mg/kg"}
    ]},
    {"smiles": "C[C@@H]1CC[C@@]2(OC1)OC1CC3C4CC[C@H]5C[C@@H](O[C@@H]6O[C@@H](COC(=O)Nc7ccccc7)[C@@H](O[C@@H]7O[C@@H](COC(=O)Nc8ccccc8)[C@@H](O)[C@H](O)[C@@H]7O)[C@H](O)[C@@H]6O)CC[C@]5(C)C4C(=O)C[C@]3(C)C1[C@@H]2C", "note": "(stereo partly specified)", "values": [
      {"measurement": "ED50", "setting": "Cricetinae gen. sp. [4]", "value": 5, "unit": "mg/kg"}
    ]},
    {"smiles": "C[C@@H]1CC[C@@]2(OC1)OC1CC3C4CC[C@H]5C[C@@H](O[C@@H]6O[C@@H](CO)[C@@H](O[C@@H]7O[C@@H](COC(=O)Nc8c(Cl)cccc8Cl)[C@@H](OC(=O)Nc8c(Cl)cccc8Cl)[C@H](O)[C@@H]7O)[C@H](O)[C@@H]6O)CC[C@]5(C)C4C(=O)C[C@]3(C)C1[C@@H]2C", "note": "(stereo partly specified)", "values": [
      {"measurement": "inhibition in vivo at 5 mg/kg", "setting": "Cricetinae gen. sp. [3]", "value": 40, "unit": "%"}
    ]},
    {"smiles": "C[C@@H]1CC[C@@]2(OC1)O[C@H]1C[C@H]3[C@@H]4CC[C@H]5C[C@@H](O[C@@H]6O[C@H](CO)[C@@H](O)[C@H](O)[C@H]6O)CC[C@]5(C)[C@H]4C(=O)C[C@]3(C)[C@H]1[C@@H]2C", "values": [
      {"measurement": "ED50", "setting": "Cricetinae gen. sp. [4]", "value": 16, "unit": "mg/kg"}
    ]},
    {"smiles": "C[C@@H]1CC[C@@]2(OC1)O[C@H]1C[C@H]3[C@@H]4CC[C@H]5C[C@@H](O[C@@H]6O[C@@H](CO)[C@@H](O[C@@H]7O[C@@H](CO)[C@@H](O)[C@H](O)[C@@H]7O)[C@H](O)[C@@H]6O)CC[C@]5(C)[C@H]4CC(=O)[C@]3(C)[C@H]1[C@@H]2C", "note": "[CELLOBIOSYL HECOGENIN]", "values": [
      {"measurement": "ED50", "setting": "Cricetinae gen. sp. [4]", "value": 10, "unit": "mg/kg"}
    ]}
  ]
}
